Reference: ChEMBL document CHEMBL1135808, “A new type of mixed anhydride and its applications to the synthesis of 7-substituted 8-chloro-5,5-dioxoimidazo[1,2-b][1,4,2]benzodithiazines with in vitro antitumor activity” (2002)

Assays:
[1] = test system: HOP-62; test: Log of molar concentration leading to 50% cell death against non-small-cell lung cancer HOP-62 cell line was reported; format: functional; settings: Homo sapiens, read-out: Log LC50 (the source's name) (converted)
[2] = test system: NCI-H522; test: In vitro growth inhibition against non-small-cell lung cancer […] cell line was reported.; format: functional; settings: Homo sapiens
[3] = test system: MDA-MB-435; test: In vitro total growth inhibition against breast cancer MDA-MB-435 cell lines was reported.; settings: Homo sapiens, read-out: Log TGI (converted)
[4] = test system: ACHN; test: In vitro total growth inhibition against renal cancer ACHN cell lines was reported.; format: functional; settings: Homo sapiens, read-out: Log TGI (converted)
[5] = test system: NCI-H322M; test: In vitro total growth inhibition against non-small-cell lung cancer NCI-H322M cell lines was reported.; format: functional; settings: Homo sapiens, read-out: Log TGI (converted)
[6] = test system: UO-31; test: In vitro growth inhibition against renal cancer UO-31 cell line was reported.; format: functional; settings: Homo sapiens
[7] = test system: NCI-H46; test: In vitro total growth inhibition against non-small-cell lung cancer […] cell lines was reported.; format: functional; settings: Homo sapiens, read-out: Log TGI (converted)
[8] = test system: HCC 2998; test: In vitro growth inhibition against colon cancer HCC2998 cell line was reported.; format: functional; settings: Homo sapiens
[9] = test system: MDA-MB-231; test: In vitro total growth inhibition against breast cancer MDA-MB-231/ATCC cell lines was reported.; format: functional; settings: Homo sapiens, read-out: Log TGI (converted)
[10] = test system: U-251; test: Log of molar concentration leading to 50% cell death against CNS cancer U251 cell line was reported; format: functional; settings: Homo sapiens, read-out: Log LC50 (the source's name) (converted)
[11] = test system: LOX IMVI; test: In vitro growth inhibition against melanoma LOX IMVI cell line was reported.; format: functional; settings: Homo sapiens
[12] = test system: NCI-H23; test: In vitro growth inhibition against non-small-cell lung cancer NCI-H23 cell line was reported.; format: functional; settings: Homo sapiens
[13] = test system: KM12; test: Log of molar concentration leading to 50% cell death against colon cancer KM12 cell line was reported; format: functional; settings: Homo sapiens, read-out: Log LC50 (the source's name) (converted)
[14] = test system: HT-29; test: In vitro total growth inhibition against colon cancer HT-29 cell lines was reported.; format: functional; settings: Homo sapiens, read-out: Log TGI (converted)
[15] = test system: NCI-H522; test: In vitro total growth inhibition against non-small-cell lung cancer NCI-522 cell lines was reported.; format: functional; settings: Homo sapiens, read-out: Log TGI (converted)
[16] = test system: SW-620; test: In vitro total growth inhibition against colon cancer SW-620 cell lines was reported.; format: functional; settings: Homo sapiens, read-out: Log TGI (converted)
[17] = test system: MDA-MB-435; test: In vitro growth inhibition against breast cancer MDA-MB-435 cell line was reported.; settings: Homo sapiens
[18] = test system: SK-MEL-5; test: In vitro growth inhibition against melanoma SK-MEL-5 cell line was reported.; format: functional; settings: Homo sapiens
[19] = test system: UACC-257; test: In vitro total growth inhibition against melanoma UACC-257 cell lines was reported.; format: functional; settings: Homo sapiens, read-out: Log TGI (converted)
[20] = test system: HOP-62; test: In vitro growth inhibition against non-small-cell lung cancer HOP-62 cell line was reported.; format: functional; settings: Homo sapiens
[21] = test system: MDA-N; test: In vitro total growth inhibition against breast cancer MDA-N cell lines was reported.; format: functional; settings: Homo sapiens, read-out: Log TGI (converted)
[22] = test system: IGROV-1; test: In vitro total growth inhibition against ovarian cancer IGROV1 cell lines was reported.; format: functional; settings: Homo sapiens, read-out: Log TGI (converted)
[23] = test system: A498; test: In vitro total growth inhibition against renal cancer A-498 cell lines was reported.; format: functional; settings: Homo sapiens, read-out: Log TGI (converted)
[24] = test system: DU-145; test: Log of molar concentration leading to 50% cell death against prostate cancer […] cell line was reported; format: functional; settings: Homo sapiens, read-out: Log LC50 (the source's name) (converted)
[25] = test system: SK-OV-3; test: In vitro growth inhibition against ovarian cancer SK-OV-3 cell line was reported.; format: functional; settings: Homo sapiens
[26] = test system: OVCAR-5; test: In vitro total growth inhibition against ovarian cancer OVCAR-5 cell lines was reported.; format: functional; settings: Homo sapiens, read-out: Log TGI (converted)
[27] = test system: M14; test: In vitro total growth inhibition against melanoma M14 cell lines was reported.; format: functional; settings: Homo sapiens, read-out: Log TGI (converted)
[28] = test system: NCI-H226; test: In vitro growth inhibition against non-small-cell lung cancer NCI-H226 cell line was reported.; format: functional; settings: Homo sapiens
[29] = test system: SF-268; test: In vitro growth inhibition against CNS cancer SF-268 cell line was reported.; format: functional; settings: Homo sapiens
[30] = test system: SNB-19; test: In vitro growth inhibition against CNS cancer SNB-19 cell line was reported.; format: functional; settings: Homo sapiens

O=C(Nc1cccc2nsnc12)c1cc2c(cc1Cl)Sc1nccn1S2(=O)=O
CC50 [1]: 8.71 µM
GI50 [2]: 5.37 µM
TGI [3]: 49 µM
TGI [4]: 36.3 µM
TGI [5]: 3.24 µM
GI50 [6]: 2.09 µM
TGI [7]: 4.27 µM
GI50 [8]: 3.39 µM
TGI [9]: 24.5 µM
CC50 [10]: 44.7 µM
GI50 [11]: 5.25 µM
GI50 [12]: 11.7 µM
CC50 [13]: 7.41 µM
TGI [14]: 5.25 µM
TGI [15]: 22.4 µM
TGI [16]: 46.8 µM
GI50 [17]: 8.13 µM
GI50 [18]: 15.8 µM
TGI [19]: 3.39 µM
GI50 [20]: 1.66 µM
TGI [21]: 27.5 µM
TGI [22]: 23.4 µM
TGI [23]: 26.3 µM
CC50 [24]: 6.03 µM
GI50 [25]: 45.7 µM
TGI [26]: 83.2 µM
TGI [27]: 46.8 µM
GI50 [28]: 19.1 µM
GI50 [29]: 3.39 µM
GI50 [30]: 12 µM
